Test results from patent publication US10611750B2, “Tetrahydroquinoline compositions as bet bromodomain inhibitors” (FORMA Therapeutics, Inc., priority 2013, dated 2020).

Experiments:
[1] = target: T1, BRD4 Bromodomain 2 (BRD4 BD2) (Homo sapiens, UniProt O60885); experiment: AlphaScreen binding assay, BRD4 BD2; conditions: His-tagged BRD4 BD2 100 nM, biotinylated H4 (1-21) K5/8/12/16 tetra-acetylated peptide 100 nM, compounds listed under IC50 range headings
T1 construct: 333-460 were cloned, expressed, and purified to homogeneity
Summary of the method: (§1)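 An AlphaScreen competition format was used with His-BRD4 BD1 or BD2 and biotin-H4 K5/8/12/16-acetyl peptide, each at matched final levels of 50 nM (BD1) or 100 nM (BD2). Incubation in HEPES/NaCl buffer with 0.1% BSA and 0.01% Triton X-100 ran ≥1 h before IC50 determination.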

[2] = tested on: acute myelocytic leukemia (AML) cell line MV4-11; experiment: Oncology cell growth assay (3-day proliferation, CellTiter-Glo); type: cell-based; conditions: Homo sapiens, MV4-11, 72 h, MV4-11 cells, 3000 cells/well, compounds listed under IC50 range headings, read-out: MV411 IC50 (gIC50, inhibition of proliferation)
Summary of the method: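 Luminescence from CellTiter-Glo served as the growth read-out after MV4-11 cells (3000/well) were cultured with compound for 72 hours. Final concentrations spanned 10 to 0.0045 μM in 3-fold steps. gIC50 values were derived by four-parameter logistic fitting relative to DMSO and cell-free controls.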

[3] = target: T2, BRD4 Bromodomain 1 (BRD4 BD1) (Homo sapiens, UniProt O60885); experiment: AlphaScreen binding assay, BRD4 BD1; conditions: His-tagged BRD4 BD1 50 nM, biotinylated H4 (1-21) K5/8/12/16 tetra-acetylated peptide 50 nM, compounds listed under IC50 range headings
T2 construct: 44-168 and BRD4 BD2
Summary of the method: as §1

Structure (SMILES)	IC50 [1]	IC50 [2]	IC50 [3]
COC(=O)N1c2ccc(-c3cnn([C@@H]4CCNC[C@@H]4F)c3)c(Oc3ccc(F)cc3)c2CC[C@@H]1C [I-365, methyl (2 S)-5-(4-fluorophenoxy)-6-{1-[(3S,4R)-3-fluoropiperidin-4-yl]-1H-pyrazol-4-yl}-2-methyl-1,2,3,4-tetrahydroquinoline-1-carboxylate]	< 50 nM	< 500 nM	100 to 1000 nM
COC(=O)N1c2ccc(-c3cnn(CCO)c3)c(Oc3ncc(C(F)(F)F)cc3F)c2CC[C@@H]1C [I-590]	50 to 500 nM	500 to 1000 nM	1000 to 10000 nM
CCCOc1c(C2=CCN(C(=O)OC(C)(C)C)CC2)ccc2c1CC[C@H](C)N2C(C)=O [I-34, tert-butyl (S)-4-(1-acetyl-2-methyl-5-propoxy-1,2,3,4-tetrahydroquinolin-6-yl)-3,6-dihydropyridine-1(2H)-carboxylate]	50 to 500 nM	> 1000 nM	≥ 10000 nM
CCCOc1c(C2CCN(CC)CC2)ccc2c1CC[C@H](C)N2C(C)=O [I-358, (S)-1-(6-(1-ethylpiperidin-4-yl)-2-methyl-5-propoxy-3,4-dihydroquinolin-1(2H)-yl)ethan-1-one]	≥ 500 nM	> 1000 nM	≥ 10000 nM
COC(=O)N1c2ccc(-c3cnn(C4CC4)c3)c(Oc3ncccc3C(N)=O)c2CC[C@@H]1C [I-587]	50 to 500 nM	500 to 1000 nM	1000 to 10000 nM
CC(=O)N1c2ccc(-c3cnn(C4CC4)c3)c(OCC3CCCC3)c2CC[C@@H]1C [I-385]	< 50 nM	< 500 nM	< 100 nM
CCCOc1c(-c2cn3ccccc3n2)ccc2c1CC[C@H](C)N2C(C)=O [I-119, (S)-1-(6-(imidazo[1,2-a]pyridin-2-yl)-2-methyl-5-propoxy-3,4-dihydroquinolin-1(2H)-yl)ethanone]	50 to 500 nM	500 to 1000 nM	1000 to 10000 nM
COC(=O)N1c2ccc(-c3cnn(CC(C)(C)O)c3)c(Oc3ncc(C)cn3)c2CC[C@@H]1C [I-583]	50 to 500 nM	< 500 nM	1000 to 10000 nM
CC(=O)N1c2ccc(-c3cnn(C4CC4)c3)c(OCC3(C)COC3)c2CC[C@@H]1C [I-395]	50 to 500 nM	500 to 1000 nM	100 to 1000 nM
COC(=O)N1c2ccc(-c3cnn(C4CCN(C)C4)c3)c(Oc3ccc(F)cc3)c2CC[C@@H]1C (stereo partly drawn) [I-249, (2S)-methyl 5-(4-fluorophenoxy)-2-methyl-6-(1-(1-methylpyrrolidin-3-yl)-1H-pyrazol-4-yl)-3,4-dihydroquinoline-1(2H)-carboxylate]	< 50 nM	< 500 nM	100 to 1000 nM
COC(=O)N1c2ccc(-c3cnn(CCO)c3)c(Oc3ncccc3C(F)(F)F)c2CC[C@@H]1C [I-564]	50 to 500 nM	500 to 1000 nM	1000 to 10000 nM
CC(=O)N1c2ccc(-c3cnn(C4CC4)c3)c(OCC3CCCCC3)c2CC[C@@H]1C [I-402]	50 to 500 nM	500 to 1000 nM	100 to 1000 nM
COC(=O)N1c2ccc(-c3cnn(C4CCN(C)CC4)c3)c(Oc3ccc(F)cc3)c2CC[C@@H]1C [I-283, Methyl (S)-5-(4-fluorophenoxy)-2-methyl-6-(1-(1-methylpiperidin-4-yl)-1H-pyrazol-4-yl)-3,4-dihydroquinoline-1(2H)-carboxylate]	< 50 nM	< 500 nM	100 to 1000 nM

More lines, now with the values ahead:

IC50 [1]	IC50 [2]	IC50 [3]	Structure (SMILES)
< 50 nM	< 500 nM	100 to 1000 nM	COC(=O)N1c2ccc(-c3cnn(C4CCNCC4)c3)c(Oc3ccccc3F)c2CC[C@@H]1C [I-259, (S)-methyl 5-(2-fluorophenoxy)-2-methyl-6-(1-(piperidin-4-yl)-1H-pyrazol-4-yl)-3,4-dihydroquinoline-1(2H)-carboxylate]
< 50 nM	< 500 nM	100 to 1000 nM	CC(=O)N1c2ccc(-c3cnn(C4CCNCC4)c3)c(Oc3cnccn3)c2CC[C@@H]1C [I-145, (S)-1-(2-methyl-6-(1-(piperidin-4-yl)-1H-pyrazol-4-yl)-5-(pyrazin-2-yloxy)-3,4-dihydroquinolin-1(2H)-yl)ethanone]
50 to 500 nM	< 500 nM	100 to 1000 nM	CC(=O)N1c2ccc(-c3cnn(C4CCNCC4)c3)c(Oc3ccc(F)cc3)c2CC[C@@H]1C [I-190, (S)-1-(5-(4-fluorophenoxy)-2-methyl-6-(1-(piperidin-4-yl)-1H-pyrazol-4-yl)-3,4-dihydroquinolin-1(2H)-yl)ethanone]
50 to 500 nM	< 500 nM	100 to 1000 nM	CC(=O)N1c2ccc(-c3cnn(C4CC4)c3)c(OCC3CCC3)c2CC[C@@H]1C [I-392]
50 to 500 nM	500 to 1000 nM	1000 to 10000 nM	COC(=O)c1ccc(Oc2c(-c3cnn(C4CCNCC4)c3)ccc3c2CC[C@H](C)N3C(C)=O)nc1 [I-522]
50 to 500 nM	< 500 nM	100 to 1000 nM	CC(=O)N1c2ccc(-c3cnn(C4CCNCC4)c3)c(Oc3ncc(C(F)(F)F)cn3)c2CC[C@@H]1C [I-519]
< 50 nM	< 500 nM	100 to 1000 nM	C[C@H]1CCc2c(ccc(-c3cnn(C4CCNCC4)c3)c2Oc2ccccc2C#N)N1C(=O)C1CC1 [I-150, (S)-2-(1-(cyclopropanecarbonyl)-2-methyl-6-(1-(piperidin-4-yl)-1H-pyrazol-4-yl)-1,2,3,4-tetrahydroquinolin-5-yloxy)benzonitrile]
< 50 nM	< 500 nM	100 to 1000 nM	COC(=O)N1c2ccc(-c3cnn(C4CCNC4)c3)c(Oc3ccc(F)cc3)c2CC[C@@H]1C (stereo partly drawn) [I-185, (2S)-methyl 5-(4-fluorophenoxy)-2-methyl-6-(1-(pyrrolidin-3-yl)-1H-pyrazol-4-yl)-3,4-dihydroquinoline-1(2H)-carboxylate]
50 to 500 nM	< 500 nM	1000 to 10000 nM	C[C@H]1CCc2c(ccc(-c3cnn(C4CCNCC4)c3)c2Oc2ncccc2C(F)(F)F)N1C(=O)C1CC1 [I-539]
50 to 500 nM	> 1000 nM	1000 to 10000 nM	COC(=O)N1c2ccc(-c3cnn(C4CC4)c3)c(Oc3ncc(C(F)(F)F)cn3)c2CC[C@@H]1C [I-581]
< 50 nM	< 500 nM	100 to 1000 nM	CC(=O)N1c2ccc(-c3cnn(C4CC4)c3)c(Oc3cnccn3)c2CC[C@@H]1C [I-88, (S)-1-(6-(1-cyclopropyl-1H-pyrazol-4-yl)-2-methyl-5-(pyrazin-2-yloxy)-3,4-dihydroquinolin-1(2H)-yl)ethanone]
50 to 500 nM	< 500 nM	100 to 1000 nM	CC(=O)N1c2ccc(-c3cnn(C4CCNCC4)c3)c(Oc3ccc(C(F)(F)F)cn3)c2CC[C@@H]1C [I-512]
50 to 500 nM	500 to 1000 nM	1000 to 10000 nM	COC(=O)N1c2ccc(-c3cnn(C4CCNCC4)c3)c(Oc3ncc(C(F)(F)F)cc3F)c2CC[C@@H]1C [I-536]
50 to 500 nM	< 500 nM	1000 to 10000 nM	COC(=O)N1c2ccc(-c3cnn(C4CC4)c3)c(Oc3ncc(F)cn3)c2CC[C@@H]1C [I-577]
< 50 nM	< 500 nM	100 to 1000 nM	C[C@H]1CCc2c(ccc(-c3cnn(C4CCNCC4)c3)c2Oc2ccc(Cl)cc2)N1C(=O)C1CC1 [I-166, (S)-(5-(4-chlorophenoxy)-2-methyl-6-(1-(piperidin-4-yl)-1H-pyrazol-4-yl)-3,4-dihydroquinolin-1(2H)-yl)(cyclopropyl)methanone]
